Reference: US7829688B2, “Peptides of CaV2.2 that inhibit pain” (The Board of Regents of the University of Texas System, priority 2004, dated 2010)
Ends that are not written are not given here.

Assays:
[1] = tested on: formalin response; experiment: Formalin assay in rats after i.v. (tail vein) injection of peptide; assay type: in vivo; conditions: rat, tail vein injection 1 mM
Description: FIG. 2—Supression of phase II, but not phase I formalin response in rats injected with R9-QDHWC peptide. The effect of i.v. administration of PBS, R9 (1 mM) or R9-QDHWC (1 mM) on phase I and phase II of the formalin assay. Phase I represents the period from 0-10 min following formalin injection and phase II represents the period from 11-60 min following formalin injection. N=4-7 rats per group. *** indicates a significant difference when compared to PBS injection (p<0.01).
As is shown in FIG. 2, the peptide R9-QDHWC (full sequence RRRRRRRRRQDHWC; SEQ ID NO_also inhibits phage II but not phase I responses in the rat formalin model. Male Sprague Dawley rats (175-225 gm) received a tail vein injection of either PBS, R9 (1 mM), or R9-QDHWC (1 mM) following which they were placed in a plexiglass observation chamber to allow for acclimation. Thirty minutes following the tail vein injection, the dorsal surface of one hind paw was injected with 50 ul of a 5% formalin solution. Observers, blind to drug treatment, scored the number of biting, licking, and scratching behaviors of the injected hindlimb and paw. Data were analyzed with SigmaStat Software (SPSS, Inc. v. 2.03) using ANOVA followed by a Tukey post hoc analysis.

[2] = tested on: mature hippocampal neuronal cultures; experiment: FM1-43 imaging, double-staining protocol (synaptic function); assay type: cell-based; conditions: neurons incubated with 50 μM peptide for 15 min; 90 mM KCl stimulation
Source text: FIGS. 3A-D—Effects of R9-QDHWC peptides on synaptic function. Double-staining protocol is shown on the top. Results of first and second destaining are shown for representative puncta for control neurons (FIG. 3A), for neurons loaded with R9 peptide (FIG. 3B) and for neurons loaded with R9-QDHWC peptide (FIG. 3C). An average d2/d1 ratios are compared for all 3 groups of neurons (FIG. 3D).
An FM1-43 imaging was used to study synaptic effects of R9-QDHWC competitive peptide that corresponds to Mint-PDZ binding site on Cav2.2 subunit. In these experiments we adapted double-staining protocol from (Reuter, 1995). First the mature hippocampal neuronal cultures were stained with FM1-43 dye for 90 sec in the presence of 47 mM KCl (FIG. 3, top). Following staining and washout of the dye (10 min) the neurons were stimulated by 90 mM KCl and the initial rate of destaining (d1) was measured at each puncta (FIG. 3, top). After completion of the first destaining protocol, the same neuronal culture was re-stained with FM1-43 for 90 sec in the presence of 47 mM KCl. […] The initial rate of destaining (d2) was once again measured at each puncta (FIG. 3, top).
To compare the results obtained during first and second destaining protocols and to minimize puncta-to-puncta variability, the inventors calculated the d2/d1 ratios for each puncta.

[3] = tested on: GST-Mint1-PDZ1/2 protein; experiment: HTRF assay of bio-NC peptide association with GST-Mint1-PDZ1/2; assay type: binding; conditions: 1000 nM with 1000 nM GST-Mint1-PDZ1/2
[4] = tested on: GST-Mint1-PDZ1/2 protein; experiment: ALPHA (AlphaScreen) assay of bio-NC peptide association with GST-Mint1-PDZ1/2; assay type: binding; conditions: with GST-Mint1-PDZ-1/2, 189 nM concentration
[5] = tested on: formalin response; experiment: Formalin assay in mouse, test compound injected into the hindpaw; assay type: in vivo; conditions: hindpaw injection
Description: FIGS. 1A & 1B—Supression of phase II, but not phase I formalin response in mouse injected with R9-NC peptide. FIG. 1A. Sequence of R9-NC peptide. FIG. 1B. Results of formalin assay in control mouse (n=8) and mouse injected with R9-NC 60 min prior to formalin injection (n=8). Phase I response (1-10 min from formalin injection) and phase II response (11-60 min from formalin injection) are shown.
First, animals are injected with a 10 μM (20 μl) solution of the test compound (dissolved in PBS) in the dorsal surface of the hindpaw. One hour following the injection of the test compound, animals receive a formalin injection (20 μl of a 5% solution) into the dorsal surface of the hindpaw. The contralateral paw is not injected. Following injection, animals are immediately transferred to a plexiglass observation cage. Each animal is observed for a total of 60 minutes following formalin injection. The period spent biting, scratching, or licking the injected hindpaw is recorded (pain score). Data is presented as cumulative time spent biting, scratching, and licking in phase I (0-10 min) and phase II (11-60 min).
One hour following delivery of either saline (control) or R9-NC into the dorsum of the hindpaw, formalin (20 μl of a 5% solution) was injected into the same hindpaw. No effect of R9-NC on phase I of the formalin assay was observed.

Molecule: RRRRRRRRRQDHWC [R9-QDHWC, RRRRRRRRRQDHWC]
- adverse effects of delivery of the peptide to rats [1]: no apparent adverse effects

Molecule: RRRRRRRRR [R9, peptide permeant motif, used as control peptide]
- formalin induced phase II behaviors vs PBS ([1]; 30 min before formalin, phase II 11-60 min): not significantly different
- average d2/d1 ratio (initial rates of FM1-43 destaining) [2]: 0.55±0.15

Molecule: O=C(O)CCCC[C@@H]1SC[C@@H]2NC(=O)N[C@@H]21 [Biotin]
- HTRF ratio [3]: less than 0.04
- ALPHA signal [4]: less than 1,500

Molecule: RRRRRRRRRHSYHHPDQDHWC [R9-NC]
- side effect when injected in the hindpaw [5]: no untoward side effect
